A short description of series [1]: delivery of 5-FU, previous data of Mollgaard et al. In kind it is in vitro ADME, human. How it is done:
The diffusion cell data previously reported for the delivery of 5-FU from PG (Mollgaard et al, supra), were analyzed and a flux of 7.8×10^-4 mg/cm^2.hr with a lag time of 17 hr was calculated. […] […]. […] Thus, the present study of delivery of 5-FU appears to be consistent with the observations of Mollgaard et al, supra.
. When the data for the diffusion of the best prodrug of 5-FU (1-butyryloxymethylderivative) described in Mollgaard et al, supra, were used to calculate a flux for that prodrug, a flux of 17.2×10^-4 mg/cm^2.hr was obtained. […]

For series [2] the following is noted: cited from earlier work.
For series [3] the following is noted: cited from earlier work. The source holds these as a separate data set.
Series [4] can be described thus: delivery of theophylline, previous study of Sloan et al. The conditions noted are these: from flux of previous study.
Series [5] in a line: hydrolysis / stability of adenine and cytosine adducts followed by UV (Example 1). In kind it is physicochemical. The following applies: water, dilute aqueous solution, about 1×10^-4 mole/l, read-out: t1/2 of hydrolysis (converted). The source says: The methanol UV spectra of the adducts of cytosine and adenine were stable for up to 2 hr. The water UV spectrum of the mono-adduct of adenine 1b was essentially identical with adenine itself under the same conditions. […] The rates of hydrolysis of three of the adducts (1d, 1e and 2d) were followed by UV at about 1×10^-4 mole/1 by following the decrease in intensity of their respective UV max with time. Spectra were monitored until stable spectra were produced which in all cases were essentially identical with the parent purine or pyrimidine. Plots of At-At.infin. versus time were used to determine t 1/2. The hydrolyses of the adducts were also followed by ^1 H NMR spectroscopy. Solutions (DMSO-d6) of the adducts at about 30 mg/ml, were diluted with D2 O in a dropwise fashion until a 1:1 ratio of the two solvents was reached. Integrations (5 times) of the spectra were taken after each addition of D2 O. Comparison of the average of the integrations of the N--CH2 --N absorptions and the integrations of the C2 --H, C8 --H, C5 --H or C6 --H absorptions was used to quantitate the amount of decomposition.

A short description of series [6]: lipid and aqueous solubilities of 5-FC and its derivatives. It is filed as physicochemical. The conditions noted are these: for solubility at 48 h: isopropyl myristate, organic solvent or mixture, read-out: Solubility, IPM.
For series [7] the following is noted: water, equilibrated three hours, 180 min; cited from earlier work.
Series [8] in a line: physchem. The following applies: organic solvent or mixture.
Series [9] in a line: lipid and aqueous solubilities of 5-IDC and its prodrugs. It is filed as physicochemical. The following applies: for Solubility, IPM / solubility at 48 h: isopropyl myristate; for solubility: pH 5.5, water, apparent; for solubility at 48 h: organic solvent or mixture, read-out: Solubility, IPM. As for the experimental part:
The approximate aqueous solubilities were determined by the addition of 100 mg of solid to 1 ml distilled water (pH 5.5). Water was added until all the solid dissolved.
The lipid solubilities of 5-iodo-2'-deoxycytidine and its N-Mannich base prodrugs were determined in isopropyl myristate. Three suspensions of the drug or prodrugs were stirred for 48 hours and then filtered. The filtrates were then diluted with either methanol, for the parent drug or dry acetonitrile, for the N-Mannich base prodrugs. The concentration of compound in solution was determined by monitoring the UV absorption at 294 nm (ε=5.79×10^3 1/mole) for 5-IDC, 333 nm (ε=2.46×10^4) for the formamidine derivative and 296 nm for the derivatives. The aqueous solubilities were obtained as described above.

A short description of series [10]: flux of theophylline in PG after first application of 5-IDC or prodrug (second application). In kind it is in vitro ADME, hairless mice. The following applies: for X-intercept / Flux of theophylline from PG after first application: first application in IPM; for Flux of theophylline from PG after first application: Th/PG 0.4 M, ±SD.
Description: A suspension of theophylline in PG (Th/PG; 0.5 ml, 0.4M) was then applied to each diffusion cell. […] This phase of the diffusion cell experiment is labelled the second application.
The slopes for each phase of the plotted lines were obtained by linear regression analysis; the slopes were then divided by the surface area of the diffusion cells (4.9 cm^2) to obtain a value for flux (J) in mg/cm^2 /h. The reported fluxes are the average flux for the three cells.
A short description of series [11]: solubility of 5-iodo-2'-deoxycytidine in various vehicles. In kind it is physicochemical. The following applies: for solubility: organic solvent or mixture.
The conditions of series [12]: phosphate buffer, pH 7.1.
For series [13] the following is noted: skins leached 120 hours, no methanol wash.
Description: After this last sampling of the receptor phase (amount left in skin), the receptor phase was again changed. […] The cumulative amount of theophylline in the receptor phase was calculated as described above. This phase of the diffusion cell studies is termed the second application.
Several control studies were also performed. […] This was the baseline for the second application. […] Theophylline in PG was then applied to assess the effect of the methanol wash (used to remove the remaining donor phase from the first application) on the skin's permeability. […] The receptor phase was changed and a suspension of Th in PG was added as before.
The slopes for each phase of the plotted lines were obtained by linear regression analysis (r>0.990); the slopes were then divided by the surface area of the diffusion cells (4.9 cm^2) to obtain a value for flux (J) in mg/cm^2 /h. The reported fluxes are the average flux of the three diffusion cells.
The conditions of series [14]: cited from earlier work. This is another data set of the same source.
The nature of series [15]: solubilities of prodrugs and parent drugs in selected solvents (Example 8). The conditions noted are these: Solubility, suspensions sonicated for 3 hr.
The nature of series [16]: hydrolysis of 5-IDC derivatives in pH 7.1 buffer. It is filed as physicochemical. The following applies: 24°, read-out: half-life (t1/2) of hydrolysis. How it is done: The hydrolysis of the prodrugs in pH 7.1 buffer (0.05M,=0.15) was monitored by UV spectroscopy at 294 nm, by measuring the appearance of 5-IDC. A plot of log (At -A.infin.) versus time was linear so first-order reaction kinetics were assumed. Each hydrolysis was performed in triplicate at a constant temperature of 24.0°±0.1° and the half-lives and rates of hydrolysis were obtained using the Guggenheim method. Stock solutions of the prodrugs were made in dry acetonitrile, and 0.1 ml of the solution was added to 3 ml of buffer in a cuvette.

Consider 14 compounds from patent US4975433A, “Aminomethyl derivatives of biologically active substances and enhanced delivery thereof across topical membranes” (priority 1989, dated 1990).

≈ marks a conversion by molar mass, not a printed value. Where “and” joins values, the source holds several entries; their conditions need not be identical. Equal values may be shown once. Read-outs that look alike come from different tables or passages of the source. Marks after values point to notes of the source that are not given here.

Turning to `CCCC(=O)OCn1cc(F)c(=O)[nH]c1=O` [1-butyryloxymethylderivative], the “times better than 5-FU in delivering 5-FU” value in series [1] (from literature flux) came out at 2.2 times. Also, in [2] (not told), the flux is 17.2×10^-4 mg/cm^2.hr.
With `Cn1c(=O)c2c(ncn2CO)n(C)c1=O` [7-(hydroxymethyl)theophylline], the flux in series [3] (not told) is 11.1×10^-2 mg/cm^2.hr. Besides, the “times more effective than theophylline in delivering theophylline” value in series [4] was “about 6.5 times”.
Regarding `CCCC(=O)OCn1cnc2c1c(=O)n(C)c(=O)n2C` [7-butyryloxymethyl)theophylline], in series [3] (previous study (Sloan et al), IPM), the flux is on record as 7.25×10^-2 mg/cm^2.hr. Further, the “times more effective than theophylline in delivering theophylline” value in series [4] came to 4.2 times.
For `c1nc(NCN2CCOCC2)c2ncn(CN3CCOCC3)c2n1` [Compound 1d, Bis-N^6,9-(4'-morpholinyl)methyladenine], the half-life at 100 µM in series [5] was about 30 min.
The same measure, in the same setting: as for `c1nc(NCN2CCCCC2)c2ncn(CN3CCCCC3)c2n1` [Compound 1e, Bis-N^6,9-(1'-piperidinyl)methyladenine], the figure is about 5 min.
On the same count and under the same terms, as for `O=c1nc(NCN2CCOCC2)ccn1CN1CCOCC1` [Compound 2d, Bis-N^4,1-(4'-morpholinyl)methylcytosine], the figure is about 180 min.
As usually defined, the solubility is the dissolved amount per volume that the medium holds. As to `Nc1nc(=O)[nH]cc1F` [Compound 5-FC, 5-fluorocytosine], the solubility in series [6] (distilled water (pH 5.5), approximate, decomposing) is 7000 µg/mL and 50000 µM; in series [8] (1-octanol) it was 0.42 mg/mL (≈ 3.25 mM); in series [8] (dmf), 3.52 mg/mL (≈ 27.3 mM); in [8] (ethylene glycol), 20 mg/mL (≈ 155 mM); in series [8] (ethylene glycol:formamide (1:1)), 17.5 mg/mL (≈ 135 mM); in series [8] (ethylene glycol:formamide (4:1)), 17.9 mg/mL (≈ 139 mM). In addition, the solubility in [8] (formamide) came out at 13.7 mg/mL (≈ 106 mM); in series [8] (ipm), 0.0045 mg/mL (≈ 0.0349 mM); in series [8] (pg) it was 10.8 mg/mL (≈ 83.7 mM). Further, the solubility at 48 h in series [6] worked out at 0.039 mM; in series [6] (±SD), 0.005 mg/mL. In addition, the “aqueous solubility, literature value” in series [7] was 120 mM (≈ 15.5 mg/mL).
For the compound `Nc1nc(=O)n([C@H]2C[C@H](O)[C@@H](CO)O2)cc1I` [Compound 5-IDC, 5-iodo-2'-deoxycytidine], the results for the “Solubility, IPM” value in series [9] and in series [9] (±SD) were 0 M(× ^5) and 0 mg/ml(× 10^2), respectively. Besides, the solubility in series [9] is < 1000 µg/mL and < 2800 µM; in [11] (1-octanol, read-out: Solubility of 5-IDC, mole fraction), 0.96 mM; in series [11] (1-propanol, read-out: Solubility of 5-IDC, mole fraction) it was 6.09 mM; in series [11] (eg, read-out: Solubility of 5-IDC, mole fraction) it was 89.2 mM; in series [11] (ethylene glycol, EG, ±SD, read-out: Solubility of 5-IDC) it was 31.5 mg/mL; in series [11] (formamide, For, ±SD, read-out: Solubility of 5-IDC), 56.9 mg/mL. The solubility in series [11] (formamide, read-out: Solubility of 5-IDC, mole fraction) was determined as 161 mM; in [11] (1-octanol, ±SD, read-out: Solubility of 5-IDC) it was 0.34 mg/mL; in series [11] (1-propanol, ±SD, read-out: Solubility of 5-IDC), 2.15 mg/mL; in [11] (pg, read-out: Solubility of 5-IDC, mole fraction), 55.7 mM; in [11] (propylene glycol, PG, ±SD, read-out: Solubility of 5-IDC), 19.7 mg/mL. Besides, in series [10] (after 5-IDC), the “increase of flux of theophylline from PG” value is given as 1.3 times. Further, the X-intercept in series [10] came to 0.6 h. In addition, the “Flux of theophylline from PG after first application” value in [10] is 246 (17) mg/cm^2 /h × 10^3. Moreover, the “Solubility of 5-IDC, mole fraction” value in series [11] (IPM) is reported as 0 mole fraction (× 10^3). In addition, the “X-intercept, initial phase” value (IPM) is given as 5.0 h. Moreover, the “X-intercept, steady-state” value (IPM) is given as 14.0 h. Besides, the “duration of initial phase” value (IPM) is 19 h. For the setting “IPM”, the “duration of steady-state delivery” value was found to be 11 h. The “conversion of 5-IDC to 5-IDU” value (diffusion cells, HPLC) was “no conversion of 5-IDC to 5IDU was detected”.
On to `CCN(CC)CNc1ccn(CN(CC)CC)c(=O)n1` [Cytosine (Et), Bis-N^4,1-(diethylamino)methylcytosine], for which the “Half-life of hydrolysis, cytosine derivatives” value in series [12] is given as 0.26(0.00) min.
`Cn1c(=O)c2[nH]cnc2n(C)c1=O` [I, Theophylline]: in series [13], the “flux for Th/PG, baseline” value is listed as 1.41±0.09×10^-3 mg/cm2 /h. In series [3] (not told), the flux was 1.72±0.13×10^-2 mg/cm^2.hr.
One may read the pKa as the negative logarithm of the acid dissociation constant. For the compound `O=c1[nH]cc(F)c(=O)[nH]1` [VII, 5-Fluorouracil], in series [1] (PG, 24 hr, 4.9 cm^2, calculated from literature flux and lag), the “theoretical 24 hr value for 5-FU diffused” value is 0.015 mg. In series [2] (PG, calculated from literature data (Mollgaard et al)), the lag time was 17 h. Also, in series [14], the pKa was 13.0. Also, the solubility in [15] (isopropyl myristate, organic solvent or mixture, IPM) was found to be 0.0044 mg/mL (≈ 0.0338 mM); in [15] (propylene glycol, organic solvent or mixture, PG), 15.1 mg/mL (≈ 116 mM); in series [15] (water), 26.2 mg/mL (≈ 201 mM).
Take `O=c1nc(NCN2CCOCC2)c(I)cn1[C@H]1C[C@H](O)[C@@H](CO)O1` [XXIIIb, N^4-(1"-morpholinyl)methyl-5-iodo-2'-deoxycytidine hydrate]: in [16], the half-life was 12.8 ± 0.6 min. In series [9], the solubility at 48 h is 0.029 mM; the solubility is 20000 µg/mL and 44000 µM. Also, the solubility at 48 h in series [9] (±SD) was 0.013 mg/mL.
As to `O=c1nc(NCN2CCCCC2)c(I)cn1[C@H]1C[C@H](O)[C@@H](CO)O1` [XXIIa, N^4-(1"-piperidinyl)methyl-5-iodo-2'-deoxycytidine hydrate], in series [9], the solubility at 48 h turned out to be 0.062 mM; the solubility was 100000 µg/mL and 222000 µM. Moreover, the solubility at 48 h in series [9] (±SD) was determined as 0.028 mg/mL. Besides, in series [10], the X-intercept is reported as 1.0 h and the “Flux of theophylline from PG after first application” value was 192 (38) mg/cm^2 /h × 10^3. In [10] (vs IPM), the “effect on flux of theophylline” value was “Not significantly different from flux after first application”.
As to `O=c1nc(NCN2CCCCC2)c(I)cn1[C@H]1C[C@H](O)[C@@H](CO)O1` [XXIIb, N^4-(1"-piperidinyl)methyl-5-iodo-2'-deoxycytidine hydrate], the half-life in series [16] was determined as 0.89 ± 0.06 min. In [9] (±SD, 2880 min, hydrate), the “Solubility, IPM” value is on record as 1.6(0.5) mg/ml(× 10^2).
